In patent publication US12378224B2 (Dong-A Socio Holdings Co., Ltd., priority 2016, dated 2025):

molecular target: human MER (528-end) (Homo sapiens (Human), UniProt Q12866); assay: HTRF Kinase Activity Biochemical Assay (KinEASE-TK); details: 10 uM ATP
In short: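 Activity read-out is the HTRF ratio (665 nm over 620 nm emission, ×10,000; excitation 340 nm) after 1 h detection with 0.375 nM Eu3+-cryptate anti-TK antibody plus 0.062 uM SA-XL665. Preceding kinase step: human MER (528-end), biotinylated TK substrate, 1 h, room temperature.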

Sequence of human MER (528-end) (Q12866 528-999 limits assumed): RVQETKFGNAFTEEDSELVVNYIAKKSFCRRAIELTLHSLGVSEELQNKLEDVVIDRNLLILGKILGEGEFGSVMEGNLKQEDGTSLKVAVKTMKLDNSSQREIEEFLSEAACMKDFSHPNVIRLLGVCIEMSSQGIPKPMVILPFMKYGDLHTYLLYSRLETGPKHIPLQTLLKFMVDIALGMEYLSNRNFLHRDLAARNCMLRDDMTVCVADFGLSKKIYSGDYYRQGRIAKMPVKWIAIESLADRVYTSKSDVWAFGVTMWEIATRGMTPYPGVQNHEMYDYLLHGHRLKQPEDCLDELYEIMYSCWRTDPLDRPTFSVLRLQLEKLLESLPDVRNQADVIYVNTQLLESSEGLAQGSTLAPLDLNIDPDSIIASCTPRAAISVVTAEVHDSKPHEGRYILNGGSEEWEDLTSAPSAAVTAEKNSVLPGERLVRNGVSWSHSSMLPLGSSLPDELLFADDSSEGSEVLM

Compound	IC50 [nM]
Nc1ncc(-c2cnn(C3CCNCC3)c2)cc1C(=O)N[C@@H]1CCN(Cc2c(F)ccc(F)c2F)C1 [Example 162, (R)-2-amino-5-(1-(piperidin-4-yl)-1H-pyrazol-4-yl)-N-(1-(2,3,6-trifluorobenzyl)pyrrolidin-3-yl)nicotinamide]	> 1000
Cc1nc(C)c(CN2CC[C@@H](NC(=O)c3cc(-c4cnn(C5CCNCC5)c4)cnc3N)C2)s1 [Example 163, (R)-2-amino-N-(1-((2,4-dimethylthiazol-5-yl)methyl)pyrrolidin-3-yl)-5-(1-(piperidin-4-yl)-1H-pyrazol-4-yl)nicotinamide]	> 1000
Cc1ccc(C)c(CN2CC[C@@H](NC(=O)c3cc(-c4cnn(C5CCNCC5)c4)cnc3N)C2)c1 [Example 166, (R)-2-amino-N-(1-(2,5-dimethylbenzyl)pyrrolidin-3-yl)-5-(1-(piperidin-4-yl)-1H-pyrazol-4-yl)nicotinamide]	> 1000
Nc1ncc(-c2cnn(C3CCNCC3)c2)cc1C(=O)N[C@@H]1CCN(Cc2ccccc2C(F)(F)F)C1 [Example 168, (R)-2-amino-5-(1-(piperidin-4-yl)-1H-pyrazol-4-yl)-N-(1-(2-(trifluoromethyl)benzyl)pyrrolidin-3-yl)nicotinamide]	> 1000
Nc1ncc(-c2cnn(C3CCNCC3)c2)cc1C(=O)N[C@@H]1CCN(CC2CC=CCC2)C1 (stereo partly drawn) [Example 169, 2-amino-N-((3R)-1-(cyclohex-3-en-1-ylmethyl)pyrrolidin-3-yl)-5-(1-(piperidin-4-yl)-1H-pyrazol-4-yl)nicotinamide]	> 1000
CC1(C)[C@H]2CC=C(CN3CC[C@@H](NC(=O)c4cc(-c5cnn(C6CCNCC6)c5)cnc4N)C3)[C@@H]1C2 [Example 170, 2-amino-N—((R)-1-(((1R,5S)-6,6-dimethylbicyclo[3.1.1]hept-2-en-2-yl)methyl)pyrrolidin-3-yl)-5-(1-(piperidin-4-yl)-1H-pyrazol-4-yl)nicotinamide]	> 1000
Cn1cc(-c2cnc(N)c(C(=O)N[C@@H]3CCN(Cc4ccc(-c5ccccc5)cc4)C3)c2)cn1 [Example 226, (R)—N-(1-([1,1′-biphenyl]-4-ylmethyl)pyrrolidin-3-yl)-2-amino-5-(1-methyl-1H-pyrazol-4-yl)nicotinamide]	> 1000
Cn1cc(-c2cnc(N)c(C(=O)N[C@@H]3CCN(CCCc4ccccc4)C3)c2)cn1 [Example 227, (R)-2-amino-5-(1-methyl-1H-pyrazol-4-yl)-N-(1-(3-phenylpropyl)pyrrolidin-3-yl)nicotinamide]	> 1000
Cn1cc(-c2cnc(N)c(C(=O)N[C@@H]3CCN(CC=Cc4ccccc4)C3)c2)cn1 [Example 228, (R)-2-amino-N-(1-cinnamylpyrrolidin-3-yl)-5-(1-methyl-1H-pyrazol-4-yl)nicotinamide]	100 to 1000
Cn1cc(-c2cnc(N)c(C(=O)N[C@@H]3CCN(CCOCc4ccccc4)C3)c2)cn1 [Example 229, (R)-2-amino-N-(1-(2-(benzyloxy)ethyl)pyrrolidin-3-yl)-5-(1-methyl-1H-pyrazol-4-yl)nicotinamide]	> 1000
Nc1ncc(-c2ccc(CO)cc2)cc1C(=O)N[C@@H]1CCN(Cc2ccc(Cl)cc2)C1 [Example 237, (R)-2-amino-N-(1-(4-chlorobenzyl)pyrrolidin-3-yl)-5-(4-(hydroxymethyl)phenyl)nicotinamide]	100 to 1000
Cn1cc(-c2cnc(N)c(C(=O)N[C@@H]3CCN(Cc4cccc(-c5cccc(CO)c5)c4)C3)c2)cn1 [Example 243, (R)-2-amino-N-(1-((3′-(hydroxymethyl)-[1,1′-biphenyl]-3-yl)methyl)pyrrolidin-3-yl)-5-(1-methyl-1H-pyrazol-4-yl)nicotinamide]	100 to 1000
Cn1cc(-c2cnc(N)c(C(=O)N[C@@H]3CCN(Cc4cccc(-c5ccc(CO)cc5)c4)C3)c2)cn1 [Example 244, (R)-2-amino-N-(1-((4′-(hydroxymethyl)-[1,1′-biphenyl]-3-yl)methyl)pyrrolidin-3-yl)-5-(1-methyl-1H-pyrazol-4-yl)nicotinamide]	100 to 1000
CN1CCN(Cc2cccc(-c3cccc(CN4CC[C@@H](NC(=O)c5cc(-c6cnn(C)c6)cnc5N)C4)c3)c2)CC1 [Example 245, (R)-2-amino-5-(1-methyl-1H-pyrazol-4-yl)-N-(1-((3′-((4-methylpiperazin-1-yl)methyl)-[1,1′-biphenyl]-3-yl)methyl)pyrrolidin-3-yl)nicotinamide]	> 1000
CN1CCN(Cc2ccc(-c3cccc(CN4CC[C@@H](NC(=O)c5cc(-c6cnn(C)c6)cnc5N)C4)c3)cc2)CC1 [Example 246, (R)-2-amino-5-(1-methyl-1H-pyrazol-4-yl)-N-(1-((4′-((4-methylpiperazin-1-yl)methyl)-[1,1′-biphenyl]-3-yl)methyl)pyrrolidin-3-yl)nicotinamide]	> 1000

The remaining lines, values ahead:

IC50 [nM]	Compound
> 1000	Cn1cc(-c2cnc(N)c(C(=O)N[C@@H]3CCN(Cc4ccccc4)C3)c2)cn1 [Example 205, (R)-2-amino-N-(1-benzylpyrrolidin-3-yl)-5-(1-methyl-1H-pyrazol-4-yl)nicotinamide]
> 1000	Cn1cc(-c2cnc(N)c(C(=O)N[C@H]3CCN(Cc4ccccc4)C3)c2)cn1 [Example 207, (S)-2-amino-N-(1-benzylpyrrolidin-3-yl)-5-(1-methyl-1H-pyrazol-4-yl)nicotinamide]
100 to 1000	Cn1cc(-c2cnc(N)c(C(=O)N[C@@H]3CCN(Cc4ccccc4Cl)C3)c2)cn1 [Example 208, (R)-2-amino-N-(1-(2-chlorobenzyl)pyrrolidin-3-yl)-5-(1-methyl-1H-pyrazol-4-yl)nicotinamide]
> 1000	COc1cccc(CN2CC[C@@H](NC(=O)c3cc(-c4cnn(C)c4)cnc3N)C2)c1 [Example 209, (R)-2-amino-N-(1-(3-methoxybenzyl)pyrrolidin-3-yl)-5-(1-methyl-1H-pyrazol-4-yl)nicotinamide]
100 to 1000	Cn1cc(-c2cnc(N)c(C(=O)N[C@@H]3CCN(Cc4ccc(Cl)cc4)C3)c2)cn1 [Example 210, (R)-2-amino-N-(1-(4-chlorobenzyl)pyrrolidin-3-yl)-5-(1-methyl-1H-pyrazol-4-yl)nicotinamide]
> 1000	CCc1ccc(CN2CC[C@@H](NC(=O)c3cc(-c4cnn(C)c4)cnc3N)C2)cc1 [Example 211, (R)-2-amino-N-(1-(4-ethylbenzyl)pyrrolidin-3-yl)-5-(1-methyl-1H-pyrazol-4-yl)nicotinamide]
> 1000	CC(C)c1ccc(CN2CC[C@@H](NC(=O)c3cc(-c4cnn(C)c4)cnc3N)C2)cc1 [Example 212, (R)-2-amino-N-(1-(4-isopropylbenzyl)pyrrolidin-3-yl)-5-(1-methyl-1H-pyrazol-4-yl)nicotinamide]
> 1000	Cn1cc(-c2cnc(N)c(C(=O)N[C@@H]3CCN(Cc4ccc(Cl)c(Cl)c4)C3)c2)cn1 [Example 213, (R)-2-amino-N-(1-(3,4-dichlorobenzyl)pyrrolidin-3-yl)-5-(1-methyl-1H-pyrazol-4-yl)nicotinamide]
> 1000	Cc1ccc(CN2CC[C@@H](NC(=O)c3cc(-c4cnn(C)c4)cnc3N)C2)cc1C [Example 214, (R)-2-amino-N-(1-(3,4-dimethylbenzyl)pyrrolidin-3-yl)-5-(1-methyl-1H-pyrazol-4-yl)nicotinamide]
> 1000	COc1cc(CN2CC[C@@H](NC(=O)c3cc(-c4cnn(C)c4)cnc3N)C2)cc(OC)c1 [Example 216, (R)-2-amino-N-(1-(3,5-dimethoxybenzyl)pyrrolidin-3-yl)-5-(1-methyl-1H-pyrazol-4-yl)nicotinamide]
> 1000	COc1ccc(OC)c(CN2CC[C@@H](NC(=O)c3cc(-c4cnn(C)c4)cnc3N)C2)c1 [Example 218, (R)-2-amino-N-(1-(2,5-dimethoxybenzyl)pyrrolidin-3-yl)-5-(1-methyl-1H-pyrazol-4-yl)nicotinamide]
> 1000	COc1ccc(O)c(CN2CC[C@@H](NC(=O)c3cc(-c4cnn(C)c4)cnc3N)C2)c1 [Example 219, (R)-2-amino-N-(1-(2-hydroxy-5-methoxybenzyl)pyrrolidin-3-yl)-5-(1-methyl-1H-pyrazol-4-yl)nicotinamide]
> 1000	COc1ccc(CN2CC[C@@H](NC(=O)c3cc(-c4cnn(C)c4)cnc3N)C2)c(OC)c1 [Example 220, (R)-2-amino-N-(1-(2,4-dimethoxybenzyl)pyrrolidin-3-yl)-5-(1-methyl-1H-pyrazol-4-yl)nicotinamide]
> 1000	Cn1cc(-c2cnc(N)c(C(=O)N[C@@H]3CCN(Cc4cc(Cl)cc(Cl)c4)C3)c2)cn1 [Example 224, (R)-2-amino-N-(1-(3,5-dichlorobenzyl)pyrrolidin-3-yl)-5-(1-methyl-1H-pyrazol-4-yl)nicotinamide]
100 to 1000	Cn1cc(-c2cnc(N)c(C(=O)N[C@@H]3CCN(Cc4ccccc4-c4ccccc4)C3)c2)cn1 [Example 225, (R)—N-(1-([1,1′-biphenyl]-2-ylmethyl)pyrrolidin-3-yl)-2-amino-5-(1-methyl-1H-pyrazol-4-yl)nicotinamide]
> 1000	Cn1cc(-c2cnc(N)c(C(=O)N[C@@H]3CCN(CCc4ccccc4)C3)c2)cn1 [Example 230, (R)-2-amino-5-(1-methyl-1H-pyrazol-4-yl)-N-(1-phenethylpyrrolidin-3-yl)nicotinamide]
> 1000	Cn1cc(-c2cnc(N)c(C(=O)N[C@@H]3CCN(Cc4cccc(Br)c4)C3)c2)cn1 [Example 231, (R)-2-amino-N-(1-(3-bromobenzyl)pyrrolidin-3-yl)-5-(1-methyl-1H-pyrazol-4-yl)nicotinamide]
100 to 1000	Cn1cc(-c2cnc(N)c(C(=O)N[C@@H]3CCN(Cc4ccccc4Br)C3)c2)cn1 [Example 232, (R)-2-amino-N-(1-(2-bromobenzyl)pyrrolidin-3-yl)-5-(1-methyl-1H-pyrazol-4-yl)nicotinamide]
> 1000	Cn1cc(-c2cnc(N)c(C(=O)N[C@@H]3CCN(Cc4ccc(F)c(Br)c4)C3)c2)cn1 [Example 233, (R)-2-amino-N-(1-(3-bromo-4-fluorobenzyl)pyrrolidin-3-yl)-5-(1-methyl-1H-pyrazol-4-yl)nicotinamide]
